Experimental data: patent US20220363686A1 (AiCuris GmbH & Co. KG, priority 2018, published 2022)

Experiments:
[1] = test system: HBV; assay: Determination of HBV DNA from the supernatants of HepAD38 cells (anti-HBV activity); format: cell-based, hepatitis B virus; details: Hepatitis B virus, HePAD38, 144 h, HBV DNA in HepAD38 supernatant, day 6, qPCR; read-out: Cell Activity
In short: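 EC50 derived by non-linear regression of relative HBV DNA copy numbers, measured by qPCR (plasmid standards) in day-6 filtered supernatants. Before this, HepAD38 cells were exposed to serial half-log compound dilutions without tetracycline, releasing viral expression; cultures kept at 37 °C, 5% CO2.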

[2] = Cell viability assay (AlamarBlue); details: human, HepAD38 cells
[3] = target: HBV core protein (C-terminal truncated core protein containing 149 amino acids of the N-terminal assembly domain) (UniProt P03146); assay: Biochemical capsid assembly assay (fluorescence quenching); design: rows headed: Assembly Activity; other: BODIPY-FL labelled core protein, assembly started with NaCl, read after 6 min; details: read-out: Assembly Activity; BODIPY-FL labelled core protein, assembly started with NaCl, read after 6 min
In short: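 N-terminal assembly domain (residues 1–149) plus C-terminal Cys150, E. coli-expressed, BODIPY-FL-maleimide labelled, used at 1.0–2.0 μM in 50 mM HEPES pH 7.5 with 0.5% DMSO. Assembly started with NaCl ([…]); fluorescence quenching (ex 477/em 525 nm) read after 6 min. 8-point compound series; EC50 by non-linear regression.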

Sequence of HBV core protein (C-terminal truncated core protein containing 149 amino acids of the N-terminal assembly domain) (P03146 whole entry, the tested form may be a part): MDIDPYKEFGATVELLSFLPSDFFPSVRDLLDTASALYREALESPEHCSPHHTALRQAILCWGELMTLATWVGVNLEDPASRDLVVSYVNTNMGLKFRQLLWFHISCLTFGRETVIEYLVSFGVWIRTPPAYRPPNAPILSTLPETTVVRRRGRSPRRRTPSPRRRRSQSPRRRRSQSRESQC

SMILES	EC50 [1] [µM]	CC50 at 6 days [2] [µM]	IC50 [3] [µM]
CN(C(=O)c1cnn2c1CN(C(=O)c1cc3ccccc3[nH]1)CC2)C1(COCCCO)CC1 [Example 65, N-{1-[(3-hydroxypropoxy)methyl]cyclopropyl}-5-(1H-indole-2-carbonyl)-N-methyl-4H,5H,6H,7H-pyrazolo[1,5-a]pyrazine-3-carboxamide]	< 1	> 10	< 5
CC1Cn2ncc(C(=O)N(C)C3CC3)c2CN1C(=O)c1cc2ccccc2[nH]1 (single isomer, unassigned) [Example 18, N-cyclopropyl-5-(1H-indole-2-carbonyl)-N,6-dimethyl-4H,5H,6H,7H-pyrazolo[1,5-a]pyrazine-3-carboxamide]	1 to 10	> 10	< 100
O=C(c1cc2ccccc2[nH]1)N1CCn2ncc(C(=O)N3CC(F)(F)CC34CC4)c2C1 [Example 19, 2-(3-{6,6-difluoro-4-azaspiro[2.4]heptane-4-carbonyl}-4H,5H,6H,7H-pyrazolo[1,5-a]pyrazine-5-carbonyl)-1H-indole]	< 1	> 10	< 5
CN(C(=O)c1cnn2c1CN(C(=O)c1cc3ccccc3[nH]1)CC2)C1(CCOC(F)F)CCCC1 [Example 127, N-{1-[2-(difluoromethoxy)ethyl]cyclopentyl}-5-(1H-indole-2-carbonyl)-N-methyl-4H,5H,6H,7H-pyrazolo[1,5-a]pyrazine-3-carboxamide]	1 to 10	> 10	< 5
CN(C(=O)c1cnn2c1CN(C(=O)c1cc3c(F)c(F)ccc3[nH]1)CC2)C1(CO)CC1 [Example 81, 5-(4,5-difluoro-1H-indole-2-carbonyl)-N-[1-(hydroxymethyl)cyclopropyl]-N-methyl-4H,5H,6H,7H-pyrazolo[1,5-a]pyrazine-3-carboxamide]	< 1	> 10	< 5
O=C(c1cc2ccccc2[nH]1)N1CCn2ncc(C(=O)N(C3CC3)C3CC3)c2C1 [Example 60, N,N-dicyclopropyl-5-(1H-indole-2-carbonyl)-4H,5H,6H,7H-pyrazolo[1,5-a]pyrazine-3-carboxamide]	< 1	> 10	< 5
O=C(c1cc2c(Cl)cccc2[nH]1)N1CCn2ncc(C(=O)N3CCC(O)CC34CC4)c2C1 (stereo not drawn) [Example 118, 4-[5-(4-chloro-1H-indole-2-carbonyl)-4H,5H,6H,7H-pyrazolo[1,5-a]pyrazine-3-carbonyl]-4-azaspiro[2.5]octan-7-ol]	< 1	> 10	< 5
O=C(NC1COC1)c1cnn2c1CN(C(=O)c1cc3ccccc3[nH]1)CC2 [Example 134, 5-(1H-indole-2-carbonyl)-N-(oxetan-3-yl)-4H,5H,6H,7H-pyrazolo[1,5-a]pyrazine-3-carboxamide]	1 to 10	> 10	< 5
CN(C(=O)c1cnn2c1CN(C(=O)c1cc3c(Cl)cc(F)cc3[nH]1)CC2)C1(CO)CC1 [Example 85, 5-(4-chloro-6-fluoro-1H-indole-2-carbonyl)-N-[1-(hydroxymethyl)cyclopropyl]-N-methyl-4H,5H,6H,7H-pyrazolo[1,5-a]pyrazine-3-carboxamide]	< 1	> 10	< 5
O=C(c1cc2ccccc2[nH]1)N1CCn2ncc(C(=O)N3CCOC(F)(F)C3)c2C1 [Example 69, 2-[3-(2,2-difluoromorpholine-4-carbonyl)-4H,5H,6H,7H-pyrazolo[1,5-a]pyrazine-5-carbonyl]-1H-indole]	< 1	> 10	< 5
CC1Cn2ncc(C(=O)N[C@H](C)C(F)(F)F)c2CN1C(=O)c1cc2ccccc2[nH]1 (stereo partly drawn) [Example 142, 5-(1H-indole-2-carbonyl)-6-methyl-N-[(2R)-1,1,1-trifluoropropan-2-yl]-4H,5H,6H,7H-pyrazolo[1,5-a]pyrazine-3-carboxamide]	< 1	> 10	< 5
CN(CCO)S(=O)(=O)c1cnn2c1CN(C(=O)c1cc3ccccc3[nH]1)CC2 [Example 31, N-(2-hydroxyethyl)-5-(1H-indole-2-carbonyl)-N-methyl-4H,5H,6H,7H-pyrazolo[1,5-a]pyrazine-3-sulfonamide]	< 1	> 10	< 5
COCC1(N(C)C(=O)c2cnn3c2CN(C(=O)c2cc4ccccc4[nH]2)CC3)CC1 [Example 9, 5-(1H-indole-2-carbonyl)-N-[1-(methoxymethyl)cyclopropyl]-N-methyl-4H,5H,6H,7H-pyrazolo[1,5-a]pyrazine-3-carboxamide]	< 1	> 10	< 5
CN(C(=O)c1cnn2c1CN(C(=O)c1cc3ccccc3[nH]1)CC2)C1(COCCO)CC1 [Example 64, N-{1-[(2-hydroxyethoxy)methyl]cyclopropyl}-5-(1H-indole-2-carbonyl)-N-methyl-4H,5H,6H,7H-pyrazolo[1,5-a]pyrazine-3-carboxamide]	< 1	> 10	< 5
O=C(NC1(c2ccncc2)CC1)c1cnn2c1CN(C(=O)c1cc3ccccc3[nH]1)CC2 [Example 98, 5-(1H-indole-2-carbonyl)-N-[1-(pyridin-4-yl)cyclopropyl]-4H,5H,6H,7H-pyrazolo[1,5-a]pyrazine-3-carboxamide]	< 1	> 10	< 5
CN(CC1(O)CCC1)C(=O)c1cnn2c1CN(C(=O)c1cc3ccccc3[nH]1)CC2 [Example 137, N-[(1-hydroxycyclobutyl)methyl]-5-(1H-indole-2-carbonyl)-N-methyl-4H,5H,6H,7H-pyrazolo[1,5-a]pyrazine-3-carboxamide]	< 1	> 10	< 5
O=C(c1cc2c(F)c(F)ccc2[nH]1)N1CCn2ncc(C3CCC3)c2C1 [Example 3, 2-{3-cyclobutyl-4H,5H,6H,7H-pyrazolo[1,5-a]pyrazine-5-carbonyl}-4,5-difluoro-1H-indole]	< 1	> 10	< 5
O=C(O)c1ccccc1C1CC(=O)N(c2cnn3c2CN(C(=O)c2cc4ccccc4[nH]2)CC3)C1 (stereo not drawn) [Example 86, 2-{1-[5-(1H-indole-2-carbonyl)-4H,5H,6H,7H-pyrazolo[1,5-a]pyrazin-3-yl]-5-oxopyrrolidin-3-yl}benzoic Acid]	1 to 10	> 10	< 5
CN(CCO)C(=O)c1cnn2c1CN(C(=O)c1cc3c(Cl)cccc3[nH]1)CC2 [Example 52, 5-(4-chloro-1H-indole-2-carbonyl)-N-(2-hydroxyethyl)-N-methyl-4H,5H,6H,7H-pyrazolo[1,5-a]pyrazine-3-carboxamide]	< 1	> 10	< 5
Cc1c(F)ccc2[nH]c(C(=O)N3Cc4c(C(=O)N[C@H](C)C(F)(F)F)cnn4CC3C)cc12 (stereo partly drawn) [Example 144, 5-(5-fluoro-4-methyl-1H-indole-2-carbonyl)-6-methyl-N-[(2R)-1,1,1-trifluoropropan-2-yl]-4H,5H,6H,7H-pyrazolo[1,5-a]pyrazine-3-carboxamide]	< 1	> 10	< 5
CN(C(=O)c1cnn2c1CN(C(=O)c1cc3ccccc3[nH]1)CC2)C1(c2ccncc2)CC1 [Example 46, 5-(1H-indole-2-carbonyl)-N-methyl-N-[1-(pyridin-4-yl)cyclopropyl]-4H,5H,6H,7H-pyrazolo[1,5-a]pyrazine-3-carboxamide]	< 1	> 10	< 5
Cc1cc(F)cc2[nH]c(C(=O)N3CCn4ncc(C(=O)N5CCCOCC56CC6)c4C3)cc12 [Example 107, 4-[5-(6-fluoro-4-methyl-1H-indole-2-carbonyl)-4H,5H,6H,7H-pyrazolo[1,5-a]pyrazine-3-carbonyl]-8-oxa-4-azaspiro[2.6]nonane]	< 1	> 10	< 5
CN(C(=O)c1cnn2c1CN(C(=O)c1cc3ccccc3[nH]1)CC2)C1(CNCC(F)F)CC1 [Example 53, N-(1-{[(2,2-difluoroethyl)amino]methyl}cyclopropyl)-5-(1H-indole-2-carbonyl)-N-methyl-4H,5H,6H,7H-pyrazolo[1,5-a]pyrazine-3-carboxamide]	< 1	> 10	< 5
O=C(c1cc2c(F)c(F)ccc2[nH]1)N1CCn2ncc(C(=O)N3CCC(O)CC34CC4)c2C1 (stereo not drawn) [Example 119, 4-[5-(4,5-difluoro-1H-indole-2-carbonyl)-4H,5H,6H,7H-pyrazolo[1,5-a]pyrazine-3-carbonyl]-4-azaspiro[2.5]octan-7-ol]	< 1	> 10	< 5
CN(C(=O)c1cnn2c1CN(C(=O)c1cc3cc(F)c(Cl)cc3[nH]1)CC2)C1(CO)CC1 [Example 84, 5-(6-chloro-5-fluoro-1H-indole-2-carbonyl)-N-[1-(hydroxymethyl)cyclopropyl]-N-methyl-4H,5H,6H,7H-pyrazolo[1,5-a]pyrazine-3-carboxamide]	< 1	> 10	< 5
